Measured values from ChEMBL document CHEMBL1126853, “A series of penicillin-derived C2-symmetric inhibitors of HIV-1 proteinase: structural and modeling studies” (J Med Chem, 1993).

Each compound was assayed against Human immunodeficiency virus type 1 protease (Human immunodeficiency virus 1, UniProt Q72874) (assay: Inhibitory activity against HIV-1 Protease).

| SMILES | IC50 [nM] |
| --- | --- |
| CC1(C)S[C@H]([C@H](NC(=O)Cc2ccccc2)C(=O)NCc2ccccc2)NC1C(=O)NCCCNC(=O)[C@@H]1N[C@@H]([C@H](NC(=O)Cc2ccccc2)C(=O)NCc2ccccc2)SC1(C)C (some centres not stated) | 540 |
| CCNC(=O)[C@@H](NC(=O)c1ccccc1)[C@@H]1NC(C(=O)NCCNC(=O)[C@@H]2N[C@@H]([C@H](NC(=O)c3ccccc3)C(=O)NCC)SC2(C)C)C(C)(C)S1 (some centres not stated) | 390 |
| CCNC(=O)[C@@H](NC(=O)Cc1ccccc1)[C@@H]1NC(C(=O)NCCNC(=O)[C@@H]2N[C@@H]([C@H](NC(=O)Cc3ccccc3)C(=O)NCC)SC2(C)C)C(C)(C)S1 (some centres not stated) | 3 |
| CCNC(=O)[C@@H](NC(=O)c1c(-c2ccccc2)noc1C)[C@@H]1NC(C(=O)NCCNC(=O)[C@@H]2N[C@@H]([C@H](NC(=O)c3c(-c4ccccc4)noc3C)C(=O)NCC)SC2(C)C)C(C)(C)S1 (some centres not stated) | 5.4 |
| CCNC(=O)[C@@H](NC(=O)c1ccccc1-c1ccccc1)[C@@H]1NC(C(=O)NCCNC(=O)[C@@H]2N[C@@H]([C@H](NC(=O)c3ccccc3-c3ccccc3)C(=O)NCC)SC2(C)C)C(C)(C)S1 (some centres not stated) | 9.9 |
| CC1(C)S[C@H]([C@H](NC(=O)Cc2ccccc2)C(=O)NCc2ccccc2)NC1C(=O)NCC(O)CNC(=O)[C@@H]1N[C@@H]([C@H](NC(=O)Cc2ccccc2)C(=O)NCc2ccccc2)SC1(C)C (some centres not stated) | 5 |
| CC1(C)S[C@H]([C@H](NC(=O)Cc2ccccc2)C(=O)NCC(F)(F)F)NC1C(=O)NCCNC(=O)[C@@H]1N[C@@H]([C@H](NC(=O)Cc2ccccc2)C(=O)NCC(F)(F)F)SC1(C)C (some centres not stated) | 4.4 |
